In patent US9040061B2, “Topical formulation for administering a compound” (Rigel Pharmaceuticals, Inc., priority 2011, dated 2015):
≈ marks a conversion by molar mass, not a printed value. Structures can show the parent of a compound that is named as a salt. Where two headings read alike, the source gives them in different places. Marks after values point to notes of the source that are not given here.

Tests used:
[1] = Solubility studies of compound I; format: physicochemical
Description: The solubility of compound I free base in water is only 2 μg/mL. […] Accordingly, the free base was utilized for the formulation development of compound I.

[2] = system: human Ramos B cells stimulated with human IL-4 (JAK1 and JAK3, CD23 upregulation); assay: Ramos B-cell line stimulated with IL-4, CD23 upregulation (FACS); format: cell-based; conditions: IL-4 50 units/mL for 20-24 hours, anti-CD23-PE FACS
Source text: One means of assaying for JAK inhibition is detection of the effect of compound I on the upregulation of downstream gene products. In the Ramos/IL4 assay, B-cells are stimulated with the cytokine Interleukin-4 (IL-4) leading to the activation of the JAK/Stat pathway through phosphorylation of the JAK family kinases, JAK1 and JAK3, which in turn phosphorylate and activate the transcription factor Stat-6. […] To study the effect of inhibitors (for example, the 2,4-substituted pyrimidinediamine compounds described herein) on the JAK1 and JAK3 kinases, human Ramos B cells are stimulated with human IL-4. Twenty to 24 hours post stimulation, cells are stained for upregulation of CD23 and analyzed using flow cytometry (FACS). […] An exemplary assay of this type is described in greater detail below.
B-cells stimulated with cytokine Interleukin-4 (IL-4) activate the JAK/Stat pathway through phosphorylation of the JAK family kinases, JAK-1 and JAK-3, which in turn phosphorylate and activate the transcription factor Stat-6. […] To study the effect of inhibitors on the JAK family kinases, human Ramos B cells are stimulated with human IL-4.
The Ramos B-cell line was acquired from ATCC (ATCC Catalog No. CRL-1596). […]
Cells were spun down and suspended in RPMI with 5% serum. […] Cells were then spun down and stained with anti-CD23-PE (BD Pharmingen, San Diego, Calif., Cat No. 555711) and analyzed by FACS. […]

primary human T-cells = assay: Primary human T-cell proliferation assay stimulated with IL-2; format: cell-based; conditions: IL-2, 72 hours, CellTiter-Glo
Source text: The JAK activity of compound I may further be characterized by assaying the effect of compound I on the proliferative response of primary human T-cells. In this assay, primary human T-cells derived from peripheral blood and pre-activated through stimulation of the T-cell receptor and CD28, proliferate in culture in response to the cytokine Interleukin-2 (IL-2). This proliferative response is dependent on the activation of JAK1 and JAK3 tyrosine kinases, which phosphorylate and activate the transcription factor Stat-5. The primary human T-cells are incubated with compound I in the presence of IL-2 for 72 hours and at the assay endpoint intracellular ATP concentrations are measured to assess cell viability. A reduction in cell proliferation compared to control conditions is indicative of inhibition of the JAK kinase pathway. An exemplary assay of this type is described in greater detail below.
Primary human T-cells derived from peripheral blood and pre-activated through stimulation of the T-cell receptor and CD28, proliferate in vitro in response to the cytokine Interleukin-2 (IL-2). […]
Proliferation was measured using CellTiter-Glo® Luminescent Cell Viability Assay (Promega), which determines the number of viable cells in culture based on quantitation of the ATP present, as an indicator of metabolically active cells. […]

Syk = target: T1, Syk (Homo sapiens, UniProt P43405); assay: Human cell based assay against Syk; conditions: human cell based assays, read-out: half maximal effective concentration (EC50)
T1 construct: endogenous in cells

[3] = system: other cytokine (IL-1β and TNFα) signaling; assay: Other cytokine signaling; format: cell-based
[4] = system: receptor tyrosine kinase (RTK) signaling; assay: Receptor tyrosine kinase signaling; format: cell-based
cell proliferation = assay: Cell proliferation; format: cell-based
[5] = Solubility studies of compound I; format: physicochemical; remark: listed apart in the source

**Q.** Which solubility ([1]; 4% H2O-96% THF, organic solvent or mixture, 4% H2O-96% THF, read-out: Solubility) does the source give for C#CCOc1ccc(Nc2nc(Nc3ccc(C)c(S(N)(=O)=O)c3)ncc2F)cc1 [Compound I, N2-(3-aminosulfonyl-4-methylphenyl)-5-fluoro-N4-[4-(prop-2-ynyloxy)phenyl]-2,4-pyrimidinediamine] here?
**A.** The solubility was 77000 µg/mL (≈ 180 mM).

**Q.** What about the solubility ([1]; 12% H2O-88% THF, organic solvent or mixture, 12% H2O-88% THF, read-out: Solubility) of the same molecule?
**A.** The solubility was 202000 µg/mL (≈ 473 mM).

**Q.** And the solubility ([1]; 16% H2O-84% THF, organic solvent or mixture, 16% H2O-84% THF, read-out: Solubility)?
**A.** Its solubility is 163000 µg/mL (≈ 381 mM).

**Q.** What about the solubility ([1]; 95% THF-5% PEG400, organic solvent or mixture, 95% THF-5% PEG400, read-out: Solubility) of the same molecule?
**A.** The solubility was 70000 µg/mL (≈ 164 mM).

**Q.** What about the solubility ([1]; DMI, 25 °C, organic solvent or mixture, DMI, determined at 25° C., read-out: Solubility) of the same molecule?
**A.** The solubility was 124000 µg/mL (≈ 290 mM).

**Q.** And the solubility ([1]; Miglyol 812N, oil or lipid, Miglyol 812N, read-out: Solubility)?
**A.** The solubility was 2300 µg/mL (≈ 5.38 mM).

**Q.** What about the “compound I concentration that can be obtained (solubility study)” value ([1]; at 45° C. in a formulation containing 14% water, 45% PEG400, and 20% PEG4500) of the same molecule?
**A.** The value was 120 mg/g.

**Q.** And the solubility ([1]; castor oil, oil or lipid, Castor Oil, read-out: Solubility)?
**A.** The solubility was 7400 µg/mL (≈ 17.3 mM).

**Q.** What about the solubility ([1]; water, 25 °C, water, 25° C., read-out: water solubility) of the same molecule?
**A.** The solubility was 2 µg/mL (≈ 0.00468 mM).

**Q.** What about the IC50 [2] of the same molecule?
**A.** The IC50 was 0.056 nM.

**Q.** And the IC50 (primary human T-cells)?
**A.** The IC50 was 0.181 nM.

**Q.** And the EC50 (Syk)?
**A.** The EC50 was ~140 nM.

**Q.** And the “activity on other cytokine (IL-1β and TNFα) signaling” value [3]?
**A.** The value was “little or no activity”.

**Q.** What about the “activity on receptor tyrosine kinase (RTK) signaling” value [4] of the same molecule?
**A.** The value was “little or no activity”.

**Q.** What about the “inhibition of cell proliferation” value (cell proliferation) of the same molecule?
**A.** The value was “not a broad inhibitor of cell proliferation”.

**Q.** And the solubility ([5]; 5% THF-95% PEG400, organic solvent or mixture, 5% THF-95% PEG400, read-out: Solubility)?
**A.** Its solubility is 117000 µg/mL (≈ 274 mM).

**Q.** What about the solubility ([5]; 10% THF-90% PEG400, organic solvent or mixture, 10% THF-90% PEG400, read-out: Solubility) of the same molecule?
**A.** The solubility was 129000 µg/mL (≈ 302 mM).

**Q.** And the solubility ([5]; 20% EtOH-80% PEG400, organic solvent or mixture, 20% EtOH-80% PEG400, read-out: Solubility)?
**A.** The solubility was 126000 µg/mL (≈ 295 mM).

**Q.** What about the solubility ([5]; 20% H2O-80% THF, organic solvent or mixture, 20% H2O-80% THF, read-out: Solubility) of the same molecule?
**A.** Its solubility is 133000 µg/mL (≈ 311 mM).

**Q.** And the solubility ([5]; 50% EtOH-50% PEG400, organic solvent or mixture, 50% EtOH-50% PEG400, read-out: Solubility)?
**A.** The solubility was 136000 µg/mL (≈ 318 mM).

**Q.** And the solubility ([5]; 90% THF-10% PEG400, organic solvent or mixture, 90% THF-10% PEG400, read-out: Solubility)?
**A.** The solubility was 75000 µg/mL (≈ 175 mM).

**Q.** What about the solubility ([5]; EtOH, 25 °C, organic solvent or mixture, EtOH, determined at 25° C., read-out: Solubility) of the same molecule?
**A.** The solubility was 3200 µg/mL (≈ 7.49 mM).

**Q.** What about the solubility ([5]; Glycofurol, listed as Compound I free base) of the same molecule?
**A.** The solubility was >205 ^b mg/mL.

**Q.** What about the solubility ([5]; PEG400 (temperature not given), listed as Compound I free base) of the same molecule?
**A.** The solubility was 129 ^c mg/mL.

**Q.** And the solubility ([5]; PEG400, 25 °C, organic solvent or mixture, PEG400, determined at 25° C., read-out: Solubility)?
**A.** Its solubility is > 200000 µg/mL.

**Q.** What about the solubility ([5]; PEG400, determined at 25° C.) of the same molecule?
**A.** The solubility was 292000 µg/mL (≈ 683 mM).

**Q.** What about the solubility ([5]; PG, listed as Compound I free base) of the same molecule?
**A.** Its solubility is 27 ^c mg/mL.

**Q.** What about the solubility ([5]; glycofurol, organic solvent or mixture, Glycofurol, read-out: Solubility) of the same molecule?
**A.** The solubility was > 200000 µg/mL.

**Q.** What about the solubility ([5]; glycofurol/water 8/2, organic solvent or mixture, Glycofurol/water 8/2, read-out: Solubility) of the same molecule?
**A.** The solubility was < 205000 µg/mL.

**Q.** What about the solubility ([5]; glycofurol/water 9/1 w/w, organic solvent or mixture, Glycofurol/water 9/1 w/w, read-out: Solubility) of the same molecule?
**A.** Its solubility is > 202000 µg/mL.

**Q.** And the solubility ([5]; water, 25 °C, water, determined at 25° C., read-out: Solubility)?
**A.** The solubility was 2 µg/mL (≈ 0.00468 mM).

**Q.** Which solubility ([1]; 40% TPGS/60% PEG400, organic solvent or mixture, 40% TPGS/60% PEG400, read-out: Solubility) does the source give for C#CCOc1ccc(Nc2nc(Nc3ccc(C)c(S(N)(=O)=O)c3)ncc2F)cc1 [Compound I HCl, N2-(3-aminosulfonyl-4-methylphenyl)-5-fluoro-N4-[4-(prop-2-ynyloxy)phenyl]-2,4-pyrimidinediamine] here?
**A.** Its solubility is 1700 µg/mL.

**Q.** And the solubility ([1]; IPA, organic solvent or mixture, IPA, read-out: Solubility)?
**A.** Its solubility is 37 µg/mL.

**Q.** And the solubility ([1]; oleyl alcohol, oil or lipid, Oleyl alcohol, read-out: Solubility)?
**A.** The solubility was 200 µg/mL.

**Q.** What about the solubility ([1]; polyoxyglyceride (Labrafil M1944 CS), oil or lipid, Polyoxyglyceride (Labrafil M1944 CS), read-out: Solubility) of the same molecule?
**A.** Its solubility is 70 µg/mL.

**Q.** And the solubility ([1]; polyoxyglyceride (Labrasol), oil or lipid, Polyoxyglyceride (Labrasol), read-out: Solubility)?
**A.** Its solubility is 1800 µg/mL.

**Q.** What about the solubility ([1]; triglyceride, oil or lipid, Triglyceride, read-out: Solubility) of the same molecule?
**A.** Its solubility is 20 µg/mL.

**Q.** What about the solubility ([5]; DMI, organic solvent or mixture, DMI (temperature not given), read-out: Solubility) of the same molecule?
**A.** Its solubility is 400 µg/mL.

**Q.** And the solubility ([5]; EtOH, organic solvent or mixture, EtOH (temperature not given), read-out: Solubility)?
**A.** The solubility was 300 µg/mL.

**Q.** What about the solubility ([5]; PEG400 (temperature not given)) of the same molecule?
**A.** Its solubility is 2.6 ^e mg/mL.

**Q.** What about the solubility ([5]; PG) of the same molecule?
**A.** Its solubility is 5.2 ^e mg/mL.

**Q.** And the solubility ([5]; diethylene glycol monoethyl ether (Transcutol P), organic solvent or mixture, Diethylene glycol monoethyl ether (transcutol P), read-out: Solubility)?
**A.** The solubility was 900 µg/mL.

**Q.** What about the solubility ([5]; isopropyl myristate, oil or lipid, Isopropyl Myristate, read-out: Solubility) of the same molecule?
**A.** Its solubility is 5 µg/mL.

**Q.** And the solubility ([5]; propylene glycol laurate (Lauroglycol FCC), oil or lipid, Propylene Glycol Laurate (Lauroglycol FCC), read-out: Solubility)?
**A.** Its solubility is 20 µg/mL.

**Q.** And the solubility ([5]; propylene glycol monocaprylate (Capryol 90), oil or lipid, Propylene Glycol Monocaprylate (Capryol 90), read-out: Solubility)?
**A.** The solubility was 70 µg/mL.

**Q.** Which solubility ([5]; PEG400 (temperature not given)) does the source give for C#CCOc1ccc(Nc2nc(Nc3ccc(C)c(S(N)(=O)=O)c3)ncc2F)cc1 [Compound I besylate salt, N2-(3-aminosulfonyl-4-methylphenyl)-5-fluoro-N4-[4-(prop-2-ynyloxy)phenyl]-2,4-pyrimidinediamine] here?
**A.** The solubility was 48000 µg/mL.

**Q.** And the solubility ([5]; PG)?
**A.** The solubility was 15 ^d mg/mL.
